For twelve molecules, Kd and IC50 results are on record in patent US20250368666A1, “INDAZOLE COMPOUNDS” (TYRA BIOSCIENCES, INC., priority 2022, published 2025).

The target of test [1] is T1, FGFR1 (Homo sapiens, UniProt P11362).
T1 construct: made in house; host or cells: E. coli (BL21-derived), T7 phage
As to the kind of experiment: Kinase binding assay (kinase-tagged T7 phage, affinity beads, qPCR), Kd. The settings on record: read-out: FGFR1 (Kd nM). The gist of the method:
(§1)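 T7 phage displaying each kinase, grown in a BL21-derived E. coli host at 32° C until lysis, competed with test compound for biotinylated ligand immobilised on streptavidin beads. Bead-bound kinase was eluted and quantified by qPCR. Kd came from an 11-point 3-fold dilution series fitted to the Hill equation with slope fixed at −1.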

Test [2] has as its target T2, FGFR2 (Homo sapiens, UniProt P21802).
T2 construct: made in house; host or cells: E. coli (BL21-derived), T7 phage
The description is as above. The note with it: read-out: FGFR2 (Kd nM). An outline of the steps: as §1

Test [3] concerns the target T3, FGFR3 (Homo sapiens, UniProt P22607).
T3 construct: made in house; host or cells: E. coli (BL21-derived), T7 phage
Described as above. The note with it: read-out: FGFR3 (Kd nM). The gist of the method:
as §1

The target of test [4] is T4, FGFR3 (V555M) (Homo sapiens, UniProt P22607, V555M).
T4 construct: made in house; host or cells: E. coli (BL21-derived), T7 phage
The test is described as above. The settings on record: V555M mutant; read-out: FGFR3 (V555M) (Kd nM). An outline of the steps:
as §1

Test [5] concerns the target T5, FGFR4 (Homo sapiens, UniProt P22455).
T5 construct: made in house; host or cells: E. coli (BL21-derived), T7 phage
The test is described as above. The note with it: read-out: FGFR4 (Kd nM). The gist of the method: as §1

Test [6] concerns KATO-III cell line (FGFR2 amplification). Kind of test: Cancer cell line cell viability assay (Cell Titer-Glo), 72 hr. The test is classed as cell-based. The note with it: Homo sapiens, KATO III. An outline of the steps:
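Intracellular ATP was measured by Cell Titer-Glo 2.0 luminescence after cells were incubated with compound dilutions (top 3 μM, 4-fold, 9 doses). Values were expressed relative to DMSO-treated cells and IC50 was calculated from a variable-slope dose-response curve.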
For orientation: Cellular ATP, detected with luciferase, serves as a proxy for viable cell number.

For test [7], the system named is KG-1 cell line (FGFR 1-fusion). Described as above. The test is classed as cell-based. The note with it: Homo sapiens, KG-1, KG-1 cell line (FGFR1-fusion). The gist of the method: (§2)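 RPMI1640/10% FBS for RT112/84 and MDA-MB-453; IMDM/20% FBS for KG-1; IMDM/10% FBS for HuH7. Cells plated overnight, dosed from 3 μM in 4-fold, 9-point series, incubated at 37° C, then lysed with Cell Titer-Glo 2.0; IC50 by sigmoidal fit.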

The test system of test [8] is RT112/84 cell line (FGFR3-fusion). The description is as above. The settings on record: Homo sapiens, RT112/84, RT112/84 cell line (FGFR3-fusion). The test is classed as cell-based. An outline of the steps:
as §2

For test [9], the system named is HuH7 cell line (FGF19 amplification). As to the kind of experiment: Cancer cell line cell viability assay (Cell Titer-Glo), 120 hr. The class given is cell-based. The settings on record: Homo sapiens, Huh-7. An outline of the steps: as §2

T5 sequence (P22455 22-802): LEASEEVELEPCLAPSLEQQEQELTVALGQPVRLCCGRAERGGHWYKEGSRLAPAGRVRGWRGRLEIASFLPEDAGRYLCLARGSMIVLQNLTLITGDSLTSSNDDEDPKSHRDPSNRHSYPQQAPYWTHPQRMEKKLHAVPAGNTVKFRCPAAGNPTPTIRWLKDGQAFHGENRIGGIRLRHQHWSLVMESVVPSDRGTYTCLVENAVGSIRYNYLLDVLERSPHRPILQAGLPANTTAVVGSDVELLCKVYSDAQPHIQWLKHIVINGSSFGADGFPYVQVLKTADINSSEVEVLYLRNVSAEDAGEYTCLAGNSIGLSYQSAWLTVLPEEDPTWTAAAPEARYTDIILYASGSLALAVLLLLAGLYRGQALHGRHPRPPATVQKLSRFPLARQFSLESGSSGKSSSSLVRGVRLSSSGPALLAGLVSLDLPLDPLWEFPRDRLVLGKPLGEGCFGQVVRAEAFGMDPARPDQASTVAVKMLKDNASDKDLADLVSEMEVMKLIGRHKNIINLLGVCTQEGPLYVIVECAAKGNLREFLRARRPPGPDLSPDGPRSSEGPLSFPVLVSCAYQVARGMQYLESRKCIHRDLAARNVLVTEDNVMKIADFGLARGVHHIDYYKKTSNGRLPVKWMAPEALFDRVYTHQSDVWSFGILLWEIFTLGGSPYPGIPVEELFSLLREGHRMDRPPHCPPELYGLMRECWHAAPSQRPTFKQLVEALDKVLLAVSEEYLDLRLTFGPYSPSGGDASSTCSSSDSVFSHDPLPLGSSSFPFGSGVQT
T3 sequence (P22607 23-806): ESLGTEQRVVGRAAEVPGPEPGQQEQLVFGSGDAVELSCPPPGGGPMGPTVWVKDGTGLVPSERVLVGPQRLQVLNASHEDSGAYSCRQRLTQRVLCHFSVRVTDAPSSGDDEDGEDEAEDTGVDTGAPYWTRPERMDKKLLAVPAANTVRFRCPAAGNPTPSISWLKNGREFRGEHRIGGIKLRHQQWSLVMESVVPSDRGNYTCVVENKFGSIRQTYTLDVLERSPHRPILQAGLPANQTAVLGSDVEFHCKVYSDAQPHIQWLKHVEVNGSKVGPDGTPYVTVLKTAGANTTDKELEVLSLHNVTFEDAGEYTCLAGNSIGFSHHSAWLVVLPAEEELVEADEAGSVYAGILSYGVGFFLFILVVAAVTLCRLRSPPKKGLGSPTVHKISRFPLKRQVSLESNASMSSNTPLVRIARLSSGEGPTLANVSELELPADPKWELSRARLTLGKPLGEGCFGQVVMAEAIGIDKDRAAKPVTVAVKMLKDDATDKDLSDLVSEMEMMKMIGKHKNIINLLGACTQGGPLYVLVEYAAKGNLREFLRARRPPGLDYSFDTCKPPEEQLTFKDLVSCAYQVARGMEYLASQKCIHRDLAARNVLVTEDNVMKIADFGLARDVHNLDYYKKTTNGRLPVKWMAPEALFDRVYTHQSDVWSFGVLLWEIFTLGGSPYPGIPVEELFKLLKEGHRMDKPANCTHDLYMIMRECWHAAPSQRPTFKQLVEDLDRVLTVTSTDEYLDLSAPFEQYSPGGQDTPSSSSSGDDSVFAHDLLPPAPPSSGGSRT
T1 sequence (P11362 22-822): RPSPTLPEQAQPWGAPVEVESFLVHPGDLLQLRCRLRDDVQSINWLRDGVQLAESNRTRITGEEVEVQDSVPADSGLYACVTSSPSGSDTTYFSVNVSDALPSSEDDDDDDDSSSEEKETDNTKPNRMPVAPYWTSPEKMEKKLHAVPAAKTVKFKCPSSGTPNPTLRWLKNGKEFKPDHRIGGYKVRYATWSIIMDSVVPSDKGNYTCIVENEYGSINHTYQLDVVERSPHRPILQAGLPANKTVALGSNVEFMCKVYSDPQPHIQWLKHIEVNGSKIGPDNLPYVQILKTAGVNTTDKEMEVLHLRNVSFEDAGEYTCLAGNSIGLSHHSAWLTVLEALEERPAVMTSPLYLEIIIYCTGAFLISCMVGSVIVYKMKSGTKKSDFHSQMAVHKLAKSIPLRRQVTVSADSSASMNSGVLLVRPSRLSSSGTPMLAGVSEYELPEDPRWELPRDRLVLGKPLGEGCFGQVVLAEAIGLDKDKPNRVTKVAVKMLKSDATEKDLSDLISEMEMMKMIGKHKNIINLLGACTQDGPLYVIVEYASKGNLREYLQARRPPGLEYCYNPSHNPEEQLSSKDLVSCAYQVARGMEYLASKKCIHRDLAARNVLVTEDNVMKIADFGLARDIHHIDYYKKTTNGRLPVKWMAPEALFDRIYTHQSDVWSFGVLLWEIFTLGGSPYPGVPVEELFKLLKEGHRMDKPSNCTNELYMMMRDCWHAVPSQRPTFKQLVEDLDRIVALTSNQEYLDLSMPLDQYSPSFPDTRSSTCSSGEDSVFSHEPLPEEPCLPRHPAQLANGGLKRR
T4 sequence (P22607 23-806 V555M): as the sequence (P22607 23-806) above, with V533M counted along it
T2 sequence (P21802 22-821): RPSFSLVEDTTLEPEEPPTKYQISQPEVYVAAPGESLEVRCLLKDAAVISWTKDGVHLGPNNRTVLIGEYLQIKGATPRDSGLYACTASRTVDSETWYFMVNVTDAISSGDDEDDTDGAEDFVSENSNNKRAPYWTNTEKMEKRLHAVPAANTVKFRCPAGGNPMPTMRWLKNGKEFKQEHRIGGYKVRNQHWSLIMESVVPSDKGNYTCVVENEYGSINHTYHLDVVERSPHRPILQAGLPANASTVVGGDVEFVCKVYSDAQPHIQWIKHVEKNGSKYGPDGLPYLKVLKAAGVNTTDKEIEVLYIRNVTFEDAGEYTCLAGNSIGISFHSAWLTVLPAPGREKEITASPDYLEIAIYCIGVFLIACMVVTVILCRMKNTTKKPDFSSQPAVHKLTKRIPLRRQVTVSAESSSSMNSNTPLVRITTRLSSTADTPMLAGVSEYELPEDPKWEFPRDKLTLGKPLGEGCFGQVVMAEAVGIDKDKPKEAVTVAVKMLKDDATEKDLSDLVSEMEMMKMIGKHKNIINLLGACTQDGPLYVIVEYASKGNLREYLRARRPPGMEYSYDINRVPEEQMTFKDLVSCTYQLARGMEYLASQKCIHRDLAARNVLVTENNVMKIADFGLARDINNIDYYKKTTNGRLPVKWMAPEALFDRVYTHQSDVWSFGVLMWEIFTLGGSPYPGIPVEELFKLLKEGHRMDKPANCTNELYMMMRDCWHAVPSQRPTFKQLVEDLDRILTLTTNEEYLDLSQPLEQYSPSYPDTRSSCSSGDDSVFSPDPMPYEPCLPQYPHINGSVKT

Turning to `C[C@@H](Oc1ccc2[nH]nc(-c3cnc(N4CC(C)(N5CCOCC5)C4)nc3)c2c1)c1c(Cl)cncc1Cl` [Example 43, (R)-4-(1-(5-(5-(1-(3,5-dichloropyridin-4-yl)ethoxy)-1H-indazol-3-yl)pyrimidin-2-yl)-3-methylazetidin-3-yl)morpholine], the equilibrium dissociation constant (Kd) in test [1], in test [2], in test [3], in test [4] and in test [5] was 1 to 50 nM each time. For the same molecule, the IC50 (usually the concentration at which inhibition is half-maximal) lay in the range of 50 to 200 nM in [6], 50 to 200 nM in test [7], 0.1 to 50 nM in test [8] and 0.1 to 50 nM in test [9].

For the molecule `C[C@@H](Oc1ccc2[nH]nc(-c3cnc(N4CC(C)(N(C)C)C4)nc3)c2c1)c1c(Cl)cncc1Cl` [Example 44, (R)-1-(5-(5-(1-(3,5-dichloropyridin-4-yl)ethoxy)-1H-indazol-3-yl)pyrimidin-2-yl)-N,N,3-trimethylazetidin-3-amine], the Kd in test [1], in test [2], in test [3], in [4] and in test [5] was 1 to 50 nM each time. The IC50 was 50 to 200 nM in test [6], 50 to 200 nM in test [7], 0.1 to 50 nM in test [8] and 0.1 to 50 nM in test [9].

As for `COc1cc2[nH]nc(-c3cnc(N4CC(C)(NCCO)C4)c(C#N)c3)c2cc1O[C@H](C)c1c(Cl)cncc1Cl` [Example 47, 5-[5-[(1R)-1-(3,5-dichloro-4-pyridyl)ethoxy]-6-methoxy-1H-indazol-3-yl]-2-[3-(2-hydroxyethylamino)-3-methyl-azetidin-1-yl]pyridine-3-carbonitrile], the equilibrium dissociation constant (Kd) in test [1], in test [2], in test [3], in test [4] and in test [5] was 1 to 50 nM in each case. The 50% inhibitory concentration (IC50) is 50 to 200 nM in test [6], 200 to 1000 nM in [7], 50 to 200 nM in [8] and 0.1 to 50 nM in test [9].

On to `CC(C)NC1(C)CN(c2ncc(-c3n[nH]c4ccc(O[C@H](C)c5c(Cl)cncc5Cl)cc34)cc2C#N)C1` [Example 48, (R)-5-(5-(1-(3,5-dichloropyridin-4-yl)ethoxy)-1H-indazol-3-yl)-2-(3-(isopropylamino)-3-methylazetidin-1-yl)nicotinonitrile], for which the equilibrium dissociation constant (Kd) in test [1], in [2], in test [3], in test [4] and in [5] was 1 to 50 nM each time. Besides, the IC50 in test [6] is 200 to 1000 nM; in test [7], 200 to 1000 nM; in [8], 50 to 200 nM; in [9], 0.1 to 50 nM.

In the case of `COc1cc2[nH]nc(-c3cnc(N4CC(C)(CN(C)C)C4)c(C#N)c3)c2cc1O[C@H](C)c1c(Cl)cncc1Cl` [Example 49, (R)-5-(5-(1-(3,5-dichloropyridin-4-yl)ethoxy)-6-methoxy-1H-indazol-3-yl)-2-(3-((dimethylamino)methyl)-3-methylazetidin-1-yl)nicotinonitrile], the Kd in [1], in test [2], in test [3], in test [4] and in test [5] was 1 to 50 nM in each case. The IC50 in [6], in test [7], in test [8] and in test [9] was 0.1 to 50 nM throughout.

In the case of `COc1cc2[nH]nc(-c3cnc(N4CC(C)(CNC(C)C)C4)c(C#N)c3)c2cc1O[C@H](C)c1c(Cl)cncc1Cl` [Example 50, (R)-5-(5-(1-(3,5-dichloropyridin-4-yl)ethoxy)-6-methoxy-1H-indazol-3-yl)-2-(3-((isopropylamino)methyl)-3-methylazetidin-1-yl)nicotinonitrile], the equilibrium dissociation constant (Kd) in [1], in test [2], in test [3], in test [4] and in test [5] was 1 to 50 nM in each case. In addition, the half-inhibitory concentration (IC50) in test [6], in test [7], in test [8] and in test [9] was 0.1 to 50 nM each time.

`COc1cc2[nH]nc(-c3cnc(N4CC(C)(N(C)C)C4)nc3)c2cc1O[C@H](C)c1c(Cl)cncc1Cl` [Example 51, (R)-1-(5-(5-(1-(3,5-dichloropyridin-4-yl)ethoxy)-6-methoxy-1H-indazol-3-yl)pyrimidin-2-yl)-N,N,3-trimethylazetidin-3-amine]: the equilibrium dissociation constant (Kd) in test [1], in test [2], in test [3], in test [4] and in test [5] was 1 to 50 nM in each case. In addition, the 50% inhibitory concentration (IC50) in test [6], in test [7], in test [8] and in test [9] was 0.1 to 50 nM in each case.

For `C[C@@H](Oc1ccc2[nH]nc(-c3cnc(N4CC(C)(NCCO)C4)c(C#N)c3)c2c1)c1c(Cl)cncc1Cl` [Example 52, 5-[5-[(1R)-1-(3,5-dichloro-4-pyridyl)ethoxy]-1H-indazol-3-yl]-2-[3-(2-hydroxyethylamino)-3-methyl-azetidin-1-yl]pyridine-3-carbonitrile], the Kd in test [1], in test [2], in test [3], in test [4] and in [5] was 1 to 50 nM throughout. Besides, the IC50 is 50 to 200 nM in [6], 200 to 1000 nM in [7], 50 to 200 nM in [8] and 0.1 to 50 nM in [9].

With `C[C@@H](Oc1ccc2[nH]nc(-c3cnc(N4CC(C)(NCC(C)(C)O)C4)c(C#N)c3)c2c1)c1c(Cl)cncc1Cl` [Example 54, (R)-5-(5-(1-(3,5-dichloropyridin-4-yl)ethoxy)-1H-indazol-3-yl)-2-(3-((2-hydroxy-2-methylpropyl)amino)-3-methylazetidin-1-yl)nicotinonitrile], the Kd in test [1], in [2], in [3], in test [4] and in test [5] was 1 to 50 nM each time. Moreover, the IC50 was 200 to 1000 nM in test [6], 200 to 1000 nM in [7], 50 to 200 nM in [8] and 0.1 to 50 nM in test [9].

On to `C[C@@H](O)CNC1(C)CN(c2ncc(-c3n[nH]c4ccc(O[C@H](C)c5c(Cl)cncc5Cl)cc34)cc2C#N)C1` [Example 56, 5-(5-((R)-1-(3,5-dichloropyridin-4-yl)ethoxy)-1H-indazol-3-yl)-2-(3-(((R)-2-hydroxypropyl)amino)-3-methylazetidin-1-yl)nicotinonitrile], for which the dissociation constant (Kd) in [1], in test [2], in test [3], in test [4] and in test [5] was 1 to 50 nM each time. The IC50 in test [6] is 50 to 200 nM; in test [7], 200 to 1000 nM; in [8], 0.1 to 50 nM; in test [9] it was 0.1 to 50 nM.

On to `C[C@H](O)CNC1(C)CN(c2ncc(-c3n[nH]c4ccc(O[C@H](C)c5c(Cl)cncc5Cl)cc34)cc2C#N)C1` [Example 57, 5-(5-((R)-1-(3,5-dichloropyridin-4-yl)ethoxy)-1H-indazol-3-yl)-2-(3-(((S)-2-hydroxypropyl)amino)-3-methylazetidin-1-yl)nicotinonitrile], for which the dissociation constant (Kd) in [1], in test [2], in [3], in test [4] and in [5] was 1 to 50 nM throughout. Besides, the half-inhibitory concentration (IC50) in test [6] is 50 to 200 nM; in [7], 200 to 1000 nM; in [8], 0.1 to 50 nM; in test [9], 0.1 to 50 nM.

With `COc1cc2[nH]nc(-c3cnc(N4CC(C)(C)C4)nc3)c2cc1O[C@H](C)c1c(Cl)cncc1Cl` [Example 61, 5-[(1R)-1-(3,5-dichloro-4-pyridyl)ethoxy]-3-[2-(3,3-dimethylazetidin-1-yl)pyrimidin-5-yl]-6-methoxy-1H-indazole], the Kd in [1], in test [2], in [3], in [4] and in test [5] was 1 to 50 nM in each case. The IC50 in test [6] was in the range of 50 to 200 nM; in test [7], 50 to 200 nM; in [8], 0.1 to 50 nM; in test [9], 0.1 to 50 nM.
